The supplement of paper PMC13380429
± gives the standard deviation of the averaged measurements.

Experiments:
Conditions in all cases: 72 h
Calu-3 [1] = experiment: drug sensitivity score (DSS) for viability; higher = more toxic; extreme values may be limits of the assay
HepG2 [2] = experiment: as above
U2OS [3] = experiment: as above
Vero E6 [4] = experiment: as above
Caco-2 [5] = experiment: as above
Calu-3 [6] = experiment: relative viability EC50 (midpoint between 100% and the lowest measured viability); higher = less toxic
HepG2 [7] = experiment: as above
U2OS [8] = experiment: as above
Vero E6 [9] = experiment: as above
Caco-2 [10] = experiment: as above
Calu-3 [11] = experiment: cell viability relative to DMSO; higher = less toxic
HepG2 [12] = experiment: as above
U2OS [13] = experiment: as above
Vero E6 [14] = experiment: as above
Caco-2 [15] = experiment: as above

Structure (SMILES) | drug sensitivity score (Calu-3 [1]) | drug sensitivity score (HepG2 [2]) | drug sensitivity score (U2OS [3]) | drug sensitivity score (Vero E6 [4]) | drug sensitivity score (Caco-2 [5]) | relative viability EC50 (Calu-3 [6]) [µM] | relative viability EC50 (HepG2 [7]) [µM] | relative viability EC50 (U2OS [8]) [µM] | relative viability EC50 (Vero E6 [9]) [µM] | relative viability EC50 (Caco-2 [10]) [µM] | cell viability (Calu-3 [11]; 1 nM) [%] | cell viability (Calu-3 [11]; 10 nM) [%] | cell viability (Calu-3 [11]; 100 nM) [%] | cell viability (Calu-3 [11]; 1000 nM) [%] | cell viability (Calu-3 [11]; 10000 nM) [%] | cell viability (HepG2 [12]; 1 nM) [%] | cell viability (HepG2 [12]; 10 nM) [%] | cell viability (HepG2 [12]; 100 nM) [%] | cell viability (HepG2 [12]; 1000 nM) [%] | cell viability (HepG2 [12]; 10000 nM) [%] | cell viability (U2OS [13]; 1 nM) [%] | cell viability (U2OS [13]; 10 nM) [%] | cell viability (U2OS [13]; 100 nM) [%] | cell viability (U2OS [13]; 1000 nM) [%] | cell viability (U2OS [13]; 10000 nM) [%] | cell viability (Vero E6 [14]; 1 nM) [%] | cell viability (Vero E6 [14]; 10 nM) [%] | cell viability (Vero E6 [14]; 100 nM) [%] | cell viability (Vero E6 [14]; 1000 nM) [%] | cell viability (Vero E6 [14]; 10000 nM) [%] | cell viability (Caco-2 [15]; 1 nM) [%] | cell viability (Caco-2 [15]; 10 nM) [%] | cell viability (Caco-2 [15]; 100 nM) [%] | cell viability (Caco-2 [15]; 1000 nM) [%] | cell viability (Caco-2 [15]; 10000 nM) [%]
CCC(=O)NC1CCc2cccc(OC)c2C1 (stereo unspecified) [8-M-PDOT] | 0 | 0 | 0 | 0 | 0 | > 10 | > 10 | > 10 | > 10 | > 10 | 109 | 112 | 102 | 97.6 | 112 | 100 | 94.6 | 101 | 99.1 | 102 | 104 | 97.9 | 103 | 101 | 109 | 99.6 | 106 | 98.5 | 103 | 106 | 100 | 99.5 | 99.3 | 98.7 | 119
CCCCCCNC(=O)Nc1ccc(S(=O)(=O)Nc2ccc(CCNC[C@H](O)COc3ccc(O)cc3)cc2)cc1 | 0 | 0 | 0 | 0 | 0 | > 10 | > 10 | > 10 | > 10 | > 10 | 105 | 96.8 | 93.5 | 102 | 88.3 | 95.6 | 110 | 92.1 | 103 | 107 | 106 | 96.6 | 101 | 99.9 | 103 | 92.7 | 95.8 | 91 | 96.2 | 110 | 102 | 82.7 | 102 | 102 | 104
CCOC(=O)C1=C[C@@H](OC(CC)CC)[C@H](NC(C)=O)[C@@H](N)C1 [oseltamivir-phosphate] | 0 | 0 | 0 | 0 | 0 | > 10 | > 10 | > 10 | > 10 | > 10 | 99.4 | 96.9 | 104 | 103 | 106 | 107 | 98.6 | 98 | 106 | 107 | 93.4 | 104 | 97.9 | 97.6 | 102 | 95.4 | 93.2 | 99.1 | 92.4 | 103 | 79.7 | 92.2 | 92.6 | 95.9 | 94
CNC(=O)c1ccc(N2C(=S)N(c3cnc(C#N)c(C(F)(F)F)c3)C(=O)C23CCC3)cc1F [apalutamide] | 0 | 0 | 0 | 0 | 0 | > 10 | > 10 | > 10 | > 10 | > 10 | 106 | 103 | 103 | 102 | 97.1 | 99.5 | 107 | 112 | 109 | 104 | 98 | 98.6 | 96.7 | 97.7 | 96.9 | 104 | 107 | 99.3 | 105 | 98.8 | 104 | 107 | 94.1 | 90.6 | 93.5
Cc1cc(C)c(S(=O)(=O)n2cc(C)cc2C)c(C)c1 [HJC-0350] | 0 | – | 0 | 0 | 0 | > 10 | – | > 10 | > 10 | > 10 | 93.7 | 99.4 | 92.9 | 103 | 96.5 | – | – | – | – | – | 97.4 | 98.2 | 102 | 106 | 93.4 | 97.5 | 99.5 | 98.6 | 95.5 | 96.2 | 95.5 | 98.2 | 93.6 | 96.6 | 93.2
CC1=C(/C=C/C(=C/C=C/C(C)=C/C(=O)O)c2ccc(C)cc2)C(C)(C)CCC1 | 0 | 0 | – | 0 | 0 | > 10 | > 10 | – | > 10 | > 10 | 94.6 | 106 | 112 | 102 | 99.3 | 106 | 103 | 98.2 | 94.2 | 98.4 | – | – | – | – | – | 99.1 | 95.2 | 101 | 97.2 | 108 | 90.9 | 94.2 | 95.4 | 98.4 | 97.1
C[C@]12N[C@H](Cc3ccccc31)c1ccccc12 [dizocilpine-(-)] | 0 | 1.85 ± 2.6 | 0 | 0 | 0 | > 10 | – | > 10 | > 10 | > 10 | 97.8 ± 11 | 96.6 ± 3 | 101 ± 7.7 | 96.8 ± 6.1 | 98.5 ± 11 | 99.4 ± 0.28 | 97.7 ± 4.1 | 102 ± 9.9 | 95 ± 4.2 | 73.8 ± 28 | 98.1 ± 5.1 | 104 ± 3.2 | 97.4 ± 1.7 | 100.7 ± 0.92 | 95.4 ± 1.4 | 95.8 | 97.2 | 101 | 93 | 97 | 98.7 ± 0.42 | 94.5 ± 1.2 | 97.7 ± 1.8 | 102 ± 6.2 | 99.5 ± 5
C[C@@H](CN(C)C)CN1c2ccccc2Sc2ccccc21 (racemic) [alimemazine] | 0.2 | 1 | 0 | 1.9 | 0.3 | > 10 | – | > 10 | > 10 | > 10 | 97.5 | 94.8 | 101 | 105 | 83.4 | 105 | 101 | 104 | 104 | 70.9 | 103 | 95 | 103 | 97 | 94.3 | 100 | 98.1 | 99.4 | 88.9 | 77.2 | 112 | 100 | 97.8 | 108 | 80.4
O=c1cc[nH]c(=S)[nH]1 [2-thiouracil] | 0 | – | 0 | 0 | 0 | > 10 | – | > 10 | > 10 | > 10 | 102 | 110 | 95.2 | 95.7 | 100 | – | – | – | – | – | 98.5 | 96.4 | 99.7 | 97.5 | 98.6 | 108 | 98.6 | 99.5 | 108 | 93.8 | 111 | 85.8 | 97.1 | 99 | 102
CN(C)c1ccc(/C=C2\C(=O)Nc3ccccc32)cc1 [SU4312] | 0 | 2 | 0 | 0 | 1.2 | > 10 | – | > 10 | > 10 | > 10 | 97.7 | 94.3 | 96.4 | 88.4 | 91.8 | 96 | 92.4 | 95.1 | 69.5 | 89.7 | 99.3 | 105 | 94.8 | 96.9 | 90 | 106 | 99.6 | 103 | 103 | 89.3 | 96.3 | 106 | 97.5 | 90.6 | 79.6
COc1cccc(Nc2ncnn3ccc(CN4CC[C@@H](N)[C@H](O)C4)c23)c1 | 21.9 | 0.1 | 3.5 | 14.4 | 7.5 | 0.0837 | > 10 | – | 0.292 | 0.335 | 103 | 94.4 | 46.5 | 23.7 | 9.1 | 105 | 102 | 102 | 99 | 87.9 | 96.2 | 96.5 | 93.2 | 92.6 | 55.7 | 100 | 89.4 | 65.7 | 51.4 | 14.8 | 89.2 | 91 | 81.2 | 76.1 | 48.6
CCOc1ccn(-c2ccc(F)cc2)c(=O)c1C(=O)Nc1ccc(Oc2ccnc(N)c2Cl)c(F)c1 | 0 | 1.9 | 0 | 0.6 | 0.8 | > 10 | – | > 10 | > 10 | > 10 | 93.5 | 103 | 101 | 96.1 | 94 | 110 | 116 | 108 | 96.9 | 68.5 | 102 | 98.4 | 103 | 99.2 | 98 | 103 | 99.1 | 101 | 98.8 | 81.5 | 101 | 90.4 | 90.3 | 103 | 75.1
OC(CCCN1CCN(c2ncc(F)cn2)CC1)c1ccc(F)cc1 (stereo unspecified) | 0 | 0 | – | 0 | 0 | > 10 | > 10 | – | > 10 | > 10 | 107 | 99.7 | 102 | 104 | 94.7 | 95.8 | 100 | 98.3 | 96 | 97.5 | – | – | – | – | – | 101 | 98.1 | 94.9 | 99 | 95.4 | 98.4 | 99.1 | 101 | 94.2 | 95.7
Cc1ccnc2c1NC(=O)c1cccnc1N2C1CC1 [nevirapine] | 0.2 | – | 0 | 0 | 0 | > 10 | – | > 10 | > 10 | > 10 | 104 | 90.6 | 109 | 96.8 | 87.8 | – | – | – | – | – | 97.2 | 101 | 101 | 101 | 98.9 | 94.3 | 107 | 96.5 | 104 | 108 | 87.3 | 86.8 | 101 | 97 | 100
C[C@H](N[C@@H](CCc1ccccc1)C(=O)O)C(=O)N1CCC[C@H]1C(=O)O [enalaprilat] | 0.2 | – | 0 | 0 | 0 | > 10 | – | > 10 | > 10 | > 10 | 101 | 101 | 105 | 89 | 97.2 | – | – | – | – | – | 96.5 | 97.9 | 94.9 | 96.7 | 104 | 97.5 | 94.5 | 99.1 | 101 | 107 | 92.8 | 104 | 90.1 | 97.5 | 94.7
C#C[C@]1(O)CC[C@H]2[C@@H]3CCC4=CC(=O)CC[C@@H]4[C@H]3CC[C@@]21C [Norethindrone (Norethisterone)] | 0 | 0 | – | 0 | 0 | > 10 | > 10 | – | > 10 | > 10 | 103 | 105 | 93.9 | 110 | 99.9 | 103 | 89.5 | 94.1 | 100 | 114 | – | – | – | – | – | 98.4 | 97.4 | 94.6 | 93.6 | 109 | 94 | 103 | 97 | 101 | 116
